Experimental data published in article PMC6199744, “Development of Chemical Proteomics for the Folateome and Analysis of the Kinetoplastid Folateome” (ACS Infectious Diseases, 2018).
Where “and” joins values, the source holds several entries; their conditions need not be identical. Identical values can stand only once. Like-named read-outs stand apart in the source and are kept apart here.

Test system: T. brucei lysate proteins
Type: binding, Trypanosoma brucei

SMILES: NCCCNc1ccc(C(=O)NC(CCC(=O)O)C(=O)O)cc1 (stereo not shown) [compound 7]
- fold change vs vehicle control: 0.96 and 1.1 and 0.99
- fold change (protein CZB00000046.1 HA-UBIQUITIN, vehicle control = 1): 0.74
- fold change (protein RHS6A, vehicle control = 1): 0.95
- fold change vs vehicle control (protein TB09.160.3270 ATP-DEPENDENT DEAD BOX HELICASE, PUTATIVE, vehicle control = 1): 0.89
- fold change (protein TB09.160.3710 PRO[…] NUCLEAR ANTIGEN (PCNA), PUTATIVE, vehicle control = 1): 0.81
- fold change vs vehicle control (protein TB09.160.4200 60S ACIDIC RIBOSOMAL PROTEIN, PUTATIVE, vehicle control = 1): 0.64
- fold change vs vehicle control (protein TB09.160.4250 TR[…], vehicle control = 1): 0.94
- fold change vs vehicle control (protein TB09.211.2630 60S RIBOSOMAL PROTEIN L23, PUTATIVE, vehicle control = 1): 0.98
- fold change (protein TB09.211.4460 ADP-RI[…], PUTATIVE, vehicle control = 1): 0.93
- fold change (protein TB09.211.4513 KIN[…] PROTEIN KMP-11, vehicle control = 1): 0.88
- fold change (protein TB09.211.4760 METACASPASE 5, PUTATIVE, vehicle control = 1): 1.1
- fold change vs vehicle control (protein TB09.244.2780 HY[…], CONSERVED, vehicle control = 1): 1.54
- fold change (protein TB11.01.0450 PROTEIN PHOSPHATASE 1, PUTATIVE, vehicle control = 1): 1
- fold change vs vehicle control (protein TB11.01.2560 40S RIBOSOMAL PROTEIN SA, PUTATIVE, vehicle control = 1): 0.82
- fold change vs vehicle control (protein TB11.01.3180 GUANINE NUCLEOTIDE-BINDING PROTEIN BETA SUBUNIT-LIKE PROTEIN, vehicle control = 1): 0.93
- fold change vs vehicle control (protein TB11.01.4370 HY[…], CONSERVED, vehicle control = 1): 0.8
- fold change (protein TB11.01.5350 PROFILIN, vehicle control = 1): 0.98
- fold change (protein TB11.01.5860 T-COMPLEX PROTEIN 1, EPSILON SUBUNIT, PUTATIVE, vehicle control = 1): 0.91
- fold change (protein TB11.01.8590 RAB-LIKE 5, SMALL G PROTEIN, vehicle control = 1): 0.85
- fold change (protein TB11.01.8740 PROTEIN PHOSPHATASE 4, PUTATIVE, vehicle control = 1): 0.77
- fold change vs vehicle control (protein TB11.02.2040 HY[…], CONSERVED (ALBA-Domain Protein), vehicle control = 1): 0.84
- fold change vs vehicle control (protein TB11.02.2420 HY[…], CONSERVED, vehicle control = 1): 0.99
- fold change vs vehicle control (protein TB11.02.2640 DYNEIN IN[…] IC78, PUTATIVE, vehicle control = 1): 1.17
- fold change (protein TB11.02.2960 MIT[…] PROTEIN, PUTATIVE, vehicle control = 1): 0.88
- fold change vs vehicle control (protein TB11.02.4170 40S RIBOSOMAL PROTEIN S5, PUTATIVE, vehicle control = 1): 1.18
- fold change (protein TB11.02.4700 14-3-3 PROTEIN, vehicle control = 1): 1
- fold change vs vehicle control (protein TB11.03.0250 C[…], vehicle control = 1): 0.88
- fold change vs vehicle control (protein TB11.03.0530 HY[…], CONSERVED (hy[…] SCD6.10), vehicle control = 1): 1.76
- fold change vs vehicle control (protein TB427TMP.01.0480 HY[…], CONSERVED, vehicle control = 1): 1
- fold change (protein TB427TMP.01.1470 60S RIBOSOMAL PROTEIN L10A, PUTATIVE, vehicle control = 1): 0.84
- fold change vs vehicle control (protein TB427TMP.01.4280 HY[…], CONSERVED, vehicle control = 1): 1.2
- fold change vs vehicle control (protein TB427TMP.01.5680 HY[…], CONSERVED, vehicle control = 1): 0.98
- fold change vs vehicle control (protein TB427TMP.01.5690 DRBD4, vehicle control = 1): 0.89
- fold change (protein TB427TMP.01.5960 MIT[…] PROTEIN, PUTATIVE, vehicle control = 1): 0.93
- fold change vs vehicle control (protein TB427TMP.01.6890 SMALL GTPASE, PUTATIVE, vehicle control = 1): 1.8
- fold change (protein TB427TMP.01.7490 HY[…], CONSERVED, vehicle control = 1): 0.96
- fold change vs vehicle control (protein TB427TMP.01.7530 HY[…], CONSERVED, vehicle control = 1): 1
- fold change (protein TB427TMP.01.8390 HY[…], CONSERVED, vehicle control = 1): 0.96
- fold change (protein TB427TMP.01.8570 DYNEIN LIGHT IN[…] D1BLIC, PUTATIVE, vehicle control = 1): 0.95
- fold change (protein TB427TMP.02.0030 DYNEIN HEAVY CHAIN, PUTATIVE, vehicle control = 1): 0.88
- fold change (protein TB427TMP.02.0460 NUCLEOPORIN, vehicle control = 1): 0.98
- fold change (protein TB427TMP.02.0750 T-COMPLEX PROTEIN 1, ZETA SUBUNIT, PUTATIVE, vehicle control = 1): 1
- fold change (protein TB427TMP.02.0760 DYNEIN HEAVY CHAIN, PUTATIVE, vehicle control = 1): 0.91
- fold change (protein TB427TMP.02.1070 AMINOPEPTIDASE, PUTATIVE, vehicle control = 1): 0.72
- fold change vs vehicle control (protein TB427TMP.02.1085 40S RIBOSOMAL PROTEIN S4, PUTATIVE, vehicle control = 1): 0.78
- fold change (protein TB427TMP.02.1106 NUCLEOBASE/NUCLEOSIDE TRANSPORTER 8 1, vehicle control = 1): 0.95
- fold change vs vehicle control (protein TB427TMP.02.2070 LONG-CHAIN-FATTY-ACID-COA LIGASE, PUTATIVE, vehicle control = 1): 0.95
- fold change vs vehicle control (protein TB427TMP.02.2890 HY[…], CONSERVED, vehicle control = 1): 1.22
- fold change vs vehicle control (protein TB427TMP.02.4300 HY[…], CONSERVED, vehicle control = 1): 1.4
- fold change (protein TB427TMP.02.4550 HY[…], CONSERVED, vehicle control = 1): 0.93
- fold change vs vehicle control (protein TB427TMP.02.5450 GLUCOSE-REGULATED PROTEIN 78, PUTATIVE, vehicle control = 1): 0.97
- fold change (protein TB427TMP.02.5660 HY[…], CONSERVED, vehicle control = 1): 0.82
- fold change (protein TB427TMP.03.0150 HY[…], CONSERVED, vehicle control = 1): 0.91
- fold change (protein TB427TMP.160.2370 HY[…], CONSERVED, vehicle control = 1): 0.91
- fold change vs vehicle control (protein TB427TMP.160.4620 INOSITOL-1(OR 4)-MONOPHOSPHATASE, PUTATIVE, vehicle control = 1): 0.99
- fold change vs vehicle control (protein TB427TMP.160.4630 HY[…], CONSERVED, vehicle control = 1): 0.83
- fold change (protein TB427TMP.160.4770 PROTEIN KINASE, PUTATIVE, vehicle control = 1): 0.89
- fold change (protein TB427TMP.160.5670 HY[…], CONSERVED, vehicle control = 1): 1.47
- fold change (protein TB427TMP.211.0740 P21 ANTIGEN PROTEIN, PUTATIVE, vehicle control = 1): 0.79
- fold change (protein TB427TMP.211.0930 POLYADENYLATE-BINDING PROTEIN 1 (POLY(A)-BINDING PROTEIN 1) (PABP 1), vehicle control = 1): 0.89
- fold change (protein TB427TMP.211.2460 HY[…], CONSERVED, vehicle control = 1): 0.96
- fold change vs vehicle control (protein TB427TMP.211.2570 T-COMPLEX PROTEIN 1, ETA SUBUNIT, PUTATIVE, vehicle control = 1): 0.8
- fold change vs vehicle control (protein TB427TMP.211.3140 HY[…], CONSERVED, vehicle control = 1): 2.05
- fold change vs vehicle control (protein TB427TMP.211.3510 ATP-DEPENDENT DEAD/H RNA HELICASE, PUTATIVE, vehicle control = 1): 0.97
- fold change vs vehicle control (protein TB427TMP.211.4170 HY[…], CONSERVED, vehicle control = 1): 1.18
- fold change vs vehicle control (protein TB427TMP.22.0003 PHOSPH[…], PUTATIVE, vehicle control = 1): 1.32
- fold change (protein TB427TMP.244.2840 HY[…], CONSERVED, vehicle control = 1): 0.93
- fold change (protein TB427TMP.47.0011 HY[…], CONSERVED, vehicle control = 1): 0.87
- fold change vs vehicle control (protein TB427TMP.55.0006 INTR[…] PROTEIN IFT88, vehicle control = 1): 0.91
- fold change vs vehicle control (protein TB427.01.120 RETRO[…] SPOT (RHS) PROTEIN, PUTATIVE, vehicle control = 1): 0.9
- fold change (protein TB427.01.2570 COATOMER BETA SUBUNIT, vehicle control = 1): 0.94
- fold change (protein TB427.01.5030 LEUCINE-RICH REPEAT PROTEIN (LRRP), PUTATIVE, vehicle control = 1): 0.98
- fold change vs vehicle control (protein TB427.02.2970 MIT[…] PROTEIN, PUTATIVE, vehicle control = 1): 1.23
- fold change vs vehicle control (protein TB427.02.3880 HET[…] RIBONUC[…]/F, PUTATIVE, vehicle control = 1): 1.22
- fold change vs vehicle control (protein TB427.03.1210 PROTEIN TRANSPORT PROTEIN SEC24, vehicle control = 1): 1.18
- fold change vs vehicle control (protein TB427.03.3160 POLY(A) POLYMERASE, vehicle control = 1): 1.17
- fold change vs vehicle control (protein TB427.03.3950 HY[…], CONSERVED, vehicle control = 1): 0.95
- fold change vs vehicle control (protein TB427.03.4040 HY[…], CONSERVED (Ankyrinrepeat), vehicle control = 1): 1.73
- fold change vs vehicle control (protein TB427.04.1080 V-TYPE ATPASE, A SUBUNIT, PUTATIVE, vehicle control = 1): 1.34
- fold change (protein TB427.04.1090 ENDOSOMAL INTEGRAL MEMBRANE PROTEIN, PUTATIVE, vehicle control = 1): 1.3
- fold change (protein TB427.04.1300 HY[…], CONSERVED, vehicle control = 1): 0.92
- fold change vs vehicle control (protein TB427.04.1660 MIT[…] PROTEIN, PUTATIVE, vehicle control = 1): 0.89
- fold change (protein TB427.04.310 HY[…], CONSERVED, vehicle control = 1): 0.56
- fold change (protein TB427.04.3890 ATP-DEPENDENT RNA HELICASE, PUTATIVE, vehicle control = 1): 0.88
- fold change (protein TB427.04.420 PHOSPHATIDYLINOSITOL 3-KINASE (TOR2), vehicle control = 1): 0.71
- fold change (protein TB427.04.450 COATOMER ALPHA SUBUNIT, PUTATIVE, vehicle control = 1): 0.89
- fold change (protein TB427.04.5010 CALRETICULIN, PUTATIVE, vehicle control = 1): 0.83
- fold change (protein TB427.04.5200 NUCLEOPORIN (NUP54/57), PUTATIVE, vehicle control = 1): 0.99
